Experimental data reported in article PMC11947619, “Molecular mechanism of Mad2 conformational conversion promoted by the Mad2‐interaction motif of Cdc20” (Protein Science : A Publication of the Protein Society, 2025).
Residues, ends and D or L forms follow the SMILES beside them.

Columns and labels:
O‐Mad2^WT = biological target: T1, O‐Mad2^WT (Homo sapiens, UniProt Q13257); assay: NMR: conversion of monomeric wild-type O-Mad2^WT; type: biochemical; details: O-Mad2^WT 300 μM, two-fold molar excess peptide, HSQC, 25°C
T1 construct: MD simulations on the full‐length O‐Mad2:C‐Mad2:Mad1^MIM complex; His6-DoubleStrep-TEV (N); made in house
T1 sequence (Q13257 whole entry): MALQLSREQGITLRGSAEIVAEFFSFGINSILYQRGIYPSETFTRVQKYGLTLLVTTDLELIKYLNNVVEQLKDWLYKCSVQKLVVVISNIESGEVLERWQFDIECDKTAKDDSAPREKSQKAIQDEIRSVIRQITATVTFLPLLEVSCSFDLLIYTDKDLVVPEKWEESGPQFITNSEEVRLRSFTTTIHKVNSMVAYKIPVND
Description: FIGURE 6 O‐Mad2 retains its dynamic and structural properties in the O‐Mad2:C‐Mad2 dimer. (a, c) HSQC spectra of 300 μM wild‐type O‐Mad2^WT (a, light blue) and O‐Mad2^WT:(C‐Mad2^WT:Mad1^MIM) (c, blue). The schematics show the conformation of Mad2 as indicated by the tryptophan side‐chain resonances and their oligomeric states as determined by SEC‐MALS (insets). The SEC peaks are labeled with their molecular masses (kDa), where the theoretical molecular masses for monomeric and dimeric Mad2 are 23.5 and 47.0 kDa, respectively. For the dimeric samples, only one of the monomers was isotopically labeled and observable by NMR. Distinct chemical shift differences were also observed for Gly50 in O‐Mad2 and C‐Mad2, and its resonances are marked in the spectra. Cdc20^MIM‐123‐152 was added at two‐fold molar excess to O‐Mad2^WT (a), and O‐Mad2^WT:(C‐Mad2^WT:Mad1^MIM) (c). (b, d) This generated C‐Mad2^WT‐Cdc20^MIM (b, brown), and (C‐Mad2^WT:Cdc20^MIM):(C‐Mad2^WT:Mad1^MIM) (d, yellow), respectively. Their spectra are overlaid with that of C‐Mad2^L13A/R133A:Cdc20^MIM (red) for comparison. (e) Cα RMSF were determined from MD simulations at 300 K for monomeric O‐Mad2 (blue line) and O‐Mad2 in a O‐Mad2:C‐Mad2:Mad1^MIM dimer (brown dotted line). […]
For wild‐type Mad2, the protein was expressed as O‐Mad2^WT using the conditions described above. […]

O‐Mad2^R133A = biological target: T2, O‐Mad2^R133A (Homo sapiens, UniProt Q13257, R133A); details: 100 μM O-Mad2^R133A, two-fold molar excess peptide, 25°C, 20 mM HEPES pH 7.0, 100 mM NaCl, 1 mM TCEP, 5% D2O; Trp75/Trp167 indole NH reporters; 12 min per spectrum; ref Fischer et al., [2022]; cited from earlier work
T2 construct: unable to collect equivalent data for full‐length O‐Mad2^R133A; His6-DoubleStrep-TEV (N); made in house
T2 sequence (Q13257 whole entry R133A): as the sequence (Q13257 whole entry) above, with R133A counted along it
Description: In contrast, conversion took ~24 h in the absence of Cdc20^MIM‐111‐138 peptide (Fischer et al., [2022]) (Figures 2c and ...

Compound	conversion of O-Mad2^WT, in words (O‐Mad2^WT)	time to complete Mad2 conversion (O‐Mad2^R133A)
CC[C@H](C)[C@H](NC(=O)[C@H](CCCCN)NC(=O)[C@H](C)NC(=O)[C@H](CCC(=O)O)NC(=O)[C@H](CCC(=O)O)NC(=O)[C@@H](NC(=O)[C@H](CC(=O)O)NC(=O)[C@@H](N)Cc1ccccc1)C(C)C)C(=O)N[C@@H](CC(C)C)C(=O)N[C@@H](CCCNC(=N)N)C(=O)N[C@@H](CC(C)C)C(=O)N[C@@H](CO)C(=O)NCC(=O)N[C@@H](CCCCN)C(=O)N1CCC[C@H]1C(=O)N[C@@H](CCC(N)=O)C(=O)N[C@@H](CC(N)=O)C(=O)N[C@@H](C)C(=O)N1CCC[C@H]1C(=O)N[C@@H](CCC(=O)O)C(=O)NCC(=O)N[C@@H](Cc1ccc(O)cc1)C(=O)N[C@@H](CCC(N)=O)C(=O)N[C@@H](CC(N)=O)C(=O)N[C@@H](CCCNC(=N)N)C(=O)N[C@@H](CC(C)C)C(=O)N[C@@H](CCCCN)C(=O)N[C@H](C(=O)N[C@@H](CC(C)C)C(=O)N[C@@H](Cc1ccc(O)cc1)C(=O)O)C(C)C [Cdc20^MIM‐123‐152] (H-FDVEEAKILRLSGKPQNAPEGYQNRLKVLY-OH; N-terminus and C-terminus assumed)	converted to C‐Mad2 upon binding Cdc20^MIM	
EHQKAWALNLNGFDVEEAKILRLSGKPQ [Cdc20^MIM‐111‐138, Cdc20^MIM peptide spanning Cdc20 residues 111–138]		less than 30 min
